Results taken from patent US8546414B2, “Ion channel modulators and methods of use” (Vertex Pharmaceuticals Incorporated, priority 2004, dated 2013).
pIC50: −log10 of the molar value.

How the values were obtained:
CaV2.2 = target: T1, CaV2.2 (Homo sapiens, UniProt Q00975); assay: VIPR optical membrane potential assay with electrical stimulation, CaV2.2; assay type: cell-based; settings: Table 9, CaV 2.2 receptors
T1 construct: expressed in transfected cells; host or cells: HEK293
Procedure: A. Optical Methods for Assaying CaV Inhibition Properties of Compounds:
(§1) Antagonist properties of test compounds were assessed as follows. Cells expressing the CaV of interest were placed into microtiter plates. After an incubation period, the cells were stained with fluorescent dyes sensitive to the transmembrane potential. The test compounds were added to the microtiter plate. The cells were stimulated with electrical means to evoke a CaV dependent membrane potential change from unblocked channels, which was detected and measured with trans-membrane potential-sensitive dyes. Antagonists were detected as a decreased membrane potential response to the stimulus.
(§2) VIPR® Optical Membrane Potential Assay Method with Electrical Stimulation
The following is an example of how CaV2.2 inhibition activity is measured using the optical membrane potential method. Other subtypes are performed in an analogous mode in a cell line expressing the CaV of interest.
HEK293 cells stably expressing CaV2.2 are plated into 96-well microtiter plates. After an appropriate incubation period, the cells are stained with the voltage sensitive dyes CC2-DMPE/DiSBAC2(3) as follows.
(§3) 2X CC2-DMPE=20 μM CC2-DMPE: 10 mM CC2-DMPE is vortexed with an equivalent volume of 10% Pluronic, followed by vortexing in required amount of HBSS containing 10 mM HEPES. Each cell plate will require 5 mL of 2×CC2-DMPE. 50 μL of 2×CC2-DMPE is added to wells containing washed cells, resulting in a 10 μM final staining concentration. The cells are stained for 30 minutes in the dark at RT.
Vortex in required amount of Bath X with beta-cyclodextrin. Each 96 well cell plate will require 5 ml of 2XCC2DMPE. Wash plate with ELx405 with Bath X, leaving a residual volume of 50 μL/well. Add 50 μL of 2XCC2DMPE & […] to each well. Stain for 30 minutes in the dark at RT.
Allow solution to sit for 10 minutes. Slowly mix in 370 mM BaCl2. This solution can be used to solvate compound plates. Note that compound plates are made at 1.5× drug concentration and not the usual 2X. Wash CC2 stained plate, again, leaving residual volume of 50 μL. Add 100 uL/well of the AY17 solution. Stain for 15 minutes in the dark at RT. Run plate on the optical reader.
(§4) The instrument comprises a microtiter plate handler, an optical system for exciting the coumarin dye while simultaneously recording the coumarin and oxonol emissions, a waveform generator, a current- or voltage-controlled amplifier, and a device for inserting electrodes in well. Under integrated computer control, this instrument passes user-programmed electrical stimulus protocols to cells within the wells of the microtiter plate.
Insert or use electrodes into each well to be assayed.
(§5) Use the current-controlled amplifier to deliver stimulation wave pulses for 3-5 s. Two seconds of pre-stimulus recording are performed to obtain the un-stimulated intensities. Five seconds of post-stimulation recording are performed to examine the relaxation to the resting state.
(§6) Data are analyzed and reported as normalized ratios of background-subtracted emission intensities measured in the 460 nm and 580 nm channels. Background intensities are then subtracted from each assay channel. Background intensities are obtained by measuring the emission intensities during the same time periods from identically treated assay wells in which there are no cells. The response as a function of time is then reported as the ratios obtained using the following formula: […]
(§7) The data is further reduced by calculating the initial (Ri) and final (Rf) ratios. These are the average ratio values during part or all of the pre-stimulation period, and during sample points during the stimulation period. The response to the stimulus R=Rf/Ri is then calculated.
Control responses are obtained by performing assays in the presence of a compound with the desired properties (positive control), such as mibefradil, and in the absence of pharmacological agents (negative control).

NaV1.3 = target: T2, NaV1.3 (Homo sapiens, UniProt Q9NY46); assay: VIPR optical membrane potential assay with electrical stimulation, NaV1.3; assay type: cell-based; settings: Table 9, NaV 1.3 receptors
T2 construct: expressed in transfected cells; host or cells: HEK293
Procedure: as §1, with “expressing the NaV of interest” for “expressing the CaV of interest”, “stimulated with either chemical or electrical means” for “stimulated with electrical means”, “evoke a NaV dependent membrane” for “evoke a CaV dependent membrane”
as §2
The following is an example of how NaV1.3 inhibition activity is measured using the optical membrane potential method#2. Other subtypes are performed in an analogous mode in a cell line expressing the NaV of interest.
HEK293 cells stably expressing NaV1.3 are plated into 96-well microtiter plates. After an appropriate incubation period, the cells are stained with the voltage sensitive dyes CC2-DMPE/DiSBAC2(3) as follows.
as §3, with “pluronic,” for “Pluronic,”
2X DISBAC2(3) with ABSC1=6 μM DISBAC2(3) and 1 mM ABSC1: The required amount of 10 mM DISBAC2(3) is added to a 50 ml conical tube and mixed with 1 μL 10% pluronic for each mL of solution to be made and vortexed together. Then HBSS/HEPES is added to make up 2× solution. Finally, the ABSC1 is added.
The 2X DiSBAC2(3) solution can be used to solvate compound plates. Note that compound plates are made at 2× drug concentration. Wash stained plate again, leaving residual volume of 50 Add 50 μL/well of the 2X DiSBAC2(3) w/ABSC1. Stain for 30 minutes in the dark at RT.
as §4
as §5, with “• 1. Insert or use electrodes into each well to be assayed. • 2. Use” for “Use”, “3” for “3-5”, “state. Data Analysis” for “state.”
as §6, §7
Control responses are obtained by performing assays in the presence of a compound with the desired properties (positive control), such as tetracaine, and in the absence of pharmacological agents (negative control). Responses to the negative (N) and positive (P) controls are calculated as above. The compound antagonist activity A is defined as: […]

T2 sequence (Q9NY46 whole entry): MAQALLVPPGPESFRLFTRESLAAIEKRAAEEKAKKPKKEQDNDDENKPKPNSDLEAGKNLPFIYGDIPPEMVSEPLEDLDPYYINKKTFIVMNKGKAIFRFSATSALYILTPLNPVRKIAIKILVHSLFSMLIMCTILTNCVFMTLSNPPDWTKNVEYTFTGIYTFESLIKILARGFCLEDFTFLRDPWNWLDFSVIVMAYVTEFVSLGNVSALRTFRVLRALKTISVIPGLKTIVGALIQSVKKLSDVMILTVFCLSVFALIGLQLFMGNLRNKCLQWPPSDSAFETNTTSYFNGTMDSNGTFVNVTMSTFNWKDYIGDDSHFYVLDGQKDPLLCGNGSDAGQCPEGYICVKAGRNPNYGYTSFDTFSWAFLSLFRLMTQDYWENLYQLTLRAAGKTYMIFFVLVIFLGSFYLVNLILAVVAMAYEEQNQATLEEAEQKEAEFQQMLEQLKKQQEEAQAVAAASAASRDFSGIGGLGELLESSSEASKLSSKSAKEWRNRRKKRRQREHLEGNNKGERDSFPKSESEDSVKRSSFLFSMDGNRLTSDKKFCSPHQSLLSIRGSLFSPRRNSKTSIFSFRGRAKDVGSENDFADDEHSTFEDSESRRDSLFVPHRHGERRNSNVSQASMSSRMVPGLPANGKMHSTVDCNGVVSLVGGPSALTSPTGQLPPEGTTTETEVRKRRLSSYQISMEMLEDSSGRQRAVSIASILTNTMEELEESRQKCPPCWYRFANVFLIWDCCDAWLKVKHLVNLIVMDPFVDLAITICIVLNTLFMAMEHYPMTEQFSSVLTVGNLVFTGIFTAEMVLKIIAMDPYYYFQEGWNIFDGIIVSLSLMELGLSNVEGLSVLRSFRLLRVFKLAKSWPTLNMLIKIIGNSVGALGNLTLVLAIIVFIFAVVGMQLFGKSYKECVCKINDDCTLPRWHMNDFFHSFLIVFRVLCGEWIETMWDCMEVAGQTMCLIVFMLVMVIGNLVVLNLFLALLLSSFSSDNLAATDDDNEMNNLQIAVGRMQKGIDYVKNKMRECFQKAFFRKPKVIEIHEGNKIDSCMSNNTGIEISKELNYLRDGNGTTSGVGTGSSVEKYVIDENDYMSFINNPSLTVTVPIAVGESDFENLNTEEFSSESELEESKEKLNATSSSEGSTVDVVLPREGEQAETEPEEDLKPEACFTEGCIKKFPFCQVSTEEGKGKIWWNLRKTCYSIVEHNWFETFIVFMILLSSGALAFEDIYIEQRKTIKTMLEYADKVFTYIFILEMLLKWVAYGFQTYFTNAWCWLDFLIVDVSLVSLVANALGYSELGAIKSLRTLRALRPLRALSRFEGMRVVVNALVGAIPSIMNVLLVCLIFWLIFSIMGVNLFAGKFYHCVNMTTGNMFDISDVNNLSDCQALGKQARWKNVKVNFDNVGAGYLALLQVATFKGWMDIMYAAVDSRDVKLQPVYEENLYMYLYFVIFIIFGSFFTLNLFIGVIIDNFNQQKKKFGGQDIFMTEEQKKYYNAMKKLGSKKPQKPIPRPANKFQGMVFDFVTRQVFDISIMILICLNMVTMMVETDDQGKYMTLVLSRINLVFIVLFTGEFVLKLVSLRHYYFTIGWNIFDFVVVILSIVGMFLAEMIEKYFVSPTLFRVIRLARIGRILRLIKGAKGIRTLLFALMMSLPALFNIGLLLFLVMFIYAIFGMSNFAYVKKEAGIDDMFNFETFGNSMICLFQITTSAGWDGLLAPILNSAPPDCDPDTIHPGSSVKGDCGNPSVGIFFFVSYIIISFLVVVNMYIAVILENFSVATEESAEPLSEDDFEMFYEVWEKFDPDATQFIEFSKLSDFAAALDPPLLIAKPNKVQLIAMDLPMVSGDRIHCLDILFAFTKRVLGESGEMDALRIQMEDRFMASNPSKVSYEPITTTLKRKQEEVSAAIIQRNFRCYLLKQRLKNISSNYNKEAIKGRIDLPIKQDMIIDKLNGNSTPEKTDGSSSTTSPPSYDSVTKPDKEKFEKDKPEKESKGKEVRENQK

SMILES	pIC50 (CaV2.2)	pIC50 (NaV1.3)
CCCCNc1ncc(C(=O)N2CC(C)CC(C)C2)c(-c2ccc(C#N)cc2)n1 (centres unmarked) [compound 320]	< 5.00	< 5.00
O=C(c1cnc(NCC2CCCCC2)nc1-c1ccccc1F)N1CCOCC1 [compound 351]	< 5.00	< 5.00
CC(C)CN(C)C(=O)c1cnc(NCCc2cccc(F)c2)nc1-c1ccc(C#N)cc1 [compound 295]	5.00 to 5.70	< 5.00
CC(=O)N1CCN(c2ncc(C(=O)N3CCCCC3)c(-c3ccc(C#N)cc3)n2)CC1 [compound 267]	< 5.00	< 5.00
O=C(c1cnc(N2CCOCC2)nc1-c1ccccc1F)N1CCCCC1 [compound 323]	< 5.00	< 5.00
CCN(C)C(=O)c1cnc(N2CCOCC2)nc1-c1ccccc1F [compound 317]	< 5.00	< 5.00
COCCCNC(=O)c1cnc(N2CCOCC2)nc1-c1cccc(C)c1 [compound 307]	< 5.00	< 5.00
N#Cc1ccc(-c2nc(NCC3CCCCC3)ncc2C(=O)NCCc2cccc(F)c2)cc1 [compound 345]	< 5.00	< 5.00
CC1CC(C)CN(C(=O)c2cnc(N3CCOCC3)nc2-c2ccc(C#N)cc2)C1 (centres unmarked) [compound 333]	< 5.00	< 5.00
COCCCNC(=O)c1cnc(N2CCN(C(C)=O)CC2)nc1-c1cccc(C)c1 [compound 339]	< 5.00	< 5.00
CCN(Cc1cccc(C)c1)C(=O)c1cnc(N2CCCC2)nc1-c1ccccc1F [compound 335]	5.00 to 5.70	–
COc1ccccc1CCNC(=O)c1cnc(N2CCCC2)nc1-c1cccc(C)c1 [compound 272]	< 5.00	< 5.00
CC(C)N(Cc1ccccc1)C(=O)c1cnc(N2CCOCC2)nc1-c1ccc(C#N)cc1 [compound 232]	5.00 to 5.70	< 5.00
Cc1cccc(-c2nc(NCc3cccc(Cl)c3)ncc2C(=O)N2CCOCC2)c1 [compound 318]	< 5.00	–
CCCCNc1ncc(C(=O)N(C)CC(C)C)c(-c2cccc(C)c2)n1 [compound 262]	< 5.00	< 5.00
CCCCNC(=O)c1cnc(NCCCOC)nc1-c1cccc(C)c1 [compound 332]	< 5.00	< 5.00
COCCNc1ncc(C(=O)N(CC(C)C)CC(C)C)c(-c2cccc(C)c2)n1 [compound 348]	< 5.00	< 5.00
COCCCNC(=O)c1cnc(N2CCOCC2)nc1-c1ccccc1F [compound 324]	< 5.00	< 5.00
CCCCNC(=O)c1cnc(NCCCC)nc1-c1cccc(C)c1 [compound 214]	< 5.00	–
CCN(Cc1cccc(C)c1)C(=O)c1cnc(NCCCOC)nc1-c1ccccc1F [compound 268]	< 5.00	< 5.00
CC(C)CN(CC(C)C)C(=O)c1cnc(N2CCCC2)nc1-c1ccc(C#N)cc1 [compound 341]	< 5.00	< 5.00
COc1ccc(CCNc2ncc(C(=O)N3CCC(C)CC3)c(-c3ccc(C#N)cc3)n2)cc1 [compound 316]	< 5.00	< 5.00

SMILES	pIC50 (CaV2.2)	pIC50 (NaV1.3)
CCC(C)Nc1ncc(C(=O)NC2CCCCC2C)c(-c2ccccc2F)n1 (centres unmarked) [compound 253]	< 5.00	< 5.00
COCCCNC(=O)c1cnc(NCCc2ccc(OC)cc2)nc1-c1cccc(C)c1 [compound 258]	< 5.00	< 5.00
COCCNc1ncc(C(=O)N(C)C2CCCCC2)c(-c2ccc(C#N)cc2)n1 [compound 256]	< 5.00	< 5.00
CCN(C)C(=O)c1cnc(NCCc2ccc(OC)cc2)nc1-c1cccc(C)c1 [compound 234]	< 5.00	–
COc1ccc(CCN(C)c2ncc(C(=O)N(C)CC(C)C)c(-c3ccc(C#N)cc3)n2)cc1OC [compound 271]	< 5.00	< 5.00
CCN(Cc1ccccc1)C(=O)c1cnc(N2CCOCC2)nc1-c1ccc(C#N)cc1 [compound 313]	< 5.00	< 5.00
CC1CCCCC1NC(=O)c1cnc(N2CCOCC2)nc1-c1ccccc1F (centres unmarked) [compound 254]	< 5.00	–
N#Cc1ccc(-c2nc(NCCc3cccc(F)c3)ncc2C(=O)NCc2ccccc2)cc1 [compound 249]	< 5.00	–
CCOCCN(CCOCC)C(=O)c1cnc(N2CCOCC2)nc1-c1ccccc1F [compound 315]	< 5.00	–
CCC(C)NC(=O)c1cnc(N2CCOCC2)nc1-c1ccccc1F (centres unmarked) [compound 213]	< 5.00	–
CCN(C)c1ncc(C(=O)N(Cc2ccccc2)C(C)C)c(-c2ccccc2F)n1 [compound 312]	5.00 to 5.70	–
N#Cc1ccc(-c2nc(N3CCOCC3)ncc2C(=O)NCc2ccccc2C(F)(F)F)cc1 [compound 287]	< 5.00	–
O=C(NCC1CC1)c1cnc(N2CCOCC2)nc1-c1ccccc1F [compound 212]	< 5.00	–
CC(=O)N1CCN(c2ncc(C(=O)N3CCCCC3)c(-c3ccc(-c4ccccc4)cc3)n2)CC1 [compound 278]	5.00 to 5.70	–
Cc1nc(N2CCOCC2)nc(-c2ccccc2F)c1C(=O)N(Cc1ccccc1)C(C)C [compound 338, N-benzyl-4-(2-fluorophenyl)-N-isopropyl-6-methyl-2-morpholinopyrimidine-5-carboxamide]	< 5.00	–
CC(C)CN(C)C(=O)c1cnc(N2CCOCC2)nc1-c1ccccc1F [compound 215]	< 5.00	–
O=C(c1cnc(N2CCOCC2)nc1-c1ccccc1F)N1CCOCC1 [compound 275]	< 5.00	–
O=C(c1cnc(N2CCOCC2)nc1-c1ccccc1F)N1CCCC1 [compound 250]	< 5.00	–
O=C(NCC1CCCCC1)c1cnc(N2CCOCC2)nc1-c1ccccc1F [compound 328]	< 5.00	–
CC1CCN(C(=O)c2cnc(NCc3ccccc3C(F)(F)F)nc2-c2ccc(C#N)cc2)CC1 [compound 221]	< 5.00	–
CN(C(=O)c1cnc(N2CCOCC2)nc1-c1ccccc1F)C1CCCCC1 [compound 283]	< 5.00	–
CCN(Cc1ccccc1)C(=O)c1cnc(NC2CCCC2)nc1-c1ccccc1F [compound 311]	< 5.00	–
